Where “and” joins values, the source holds several entries; their conditions need not be identical. Identical values can stand only once. Entries after “also recorded” stand apart in the source; their conditions may differ. Like-named read-outs stand apart in the source and are kept apart here.
How the values were obtained:
HSV = HSV plaque assays using Vero cells with and without EGCG (Example 1); format: cell-based; conditions: 100 μM applied
Protocol: HSV plaque assays using Vero cells were conducted with and without the addition of epigallocatechin gallate (EGCG).

Vero cells [1] = test: Cell viability assay, trypan blue and hemocytometer direct cell count; conditions: for Dead cells / Live cells: FIG. 1 axis Vero cells/ml
Protocol: Vero cells were plated in 6 well plates and after a period of 24 hours different concentrations of EGCG or EGCG-ester (12.5, 25, 50, 75, 100 μM) were added to each well, respectively. After one hour, the polyphenols were aspirated and the cells were washed with PBS. DMEM media was put back into each well and cells were incubated for 24 hrs. Cells were then counted using a hemocytometer and trypan blue which stains the dead cells blue and leaves the live cells white.
The cell viability was determined by using trypan blue and hemacytometer direct cell count to detect the effect of EGCG-ester on Vero cells.

Vero cells [2] = test: Cytotoxicity assay, morphological and proliferation changes by microscope; format: cell-based, green monkey; conditions: for change of cell morphology: 12.5 to 75 μM; for maximum nontoxic concentration: Vero cells; for effect on the cells: higher concentration
Protocol: Cells were studied for morphological and proliferation changes 48 hrs later using an ACCU-Scope 3002 microscope with a camera attached. […] Cells were studied for morphological and proliferation changes 24 hrs later using an ACCU-Scope 3002 microscope with a camera attached. In order to determine the proper concentrations of EGCG and EGCG-ester to be used for treating HSV1, the effect of polyphenols on the cells were studied. […] In this experiment, the polyphenols were added at the same time as the cells were plated and were not removed subsequently. The effect of different concentrations of EGCG-ester on Vero cells was also observed at 24 hrs. […] EGCG-ester was then aspired, and cells were observed 24 hours later.

Vero cells [3] = test: Cell proliferation assay (MTS tetrazolium, absorbance 490 nm); format: cell-based, green monkey; conditions: for absorbance at 490 nm (single reading): 1 hour, read 24 hours later; for inhibition of cell proliferation: up to 75 μM, compared to controls
Protocol: A cell proliferation kit (G5421, Promega Corp.) was used. This is a colorimetric method for determining cell proliferation. This kit contains a tetrazolium compound and an electron-coupling reagent (phenazine methosulfate). Only live cells will be able to bioreduce the tetrazolium compound into soluble formazan. Thus, the amount of formazan formed and measured at 490 nm absorbance is directly proportional to the number of live cells. Cells were plated into 96 well plates and after 24 hrs they were treated with different concentrations (12.5, 25, 50, 75, 100 μM) of polyphenols and allowed to adsorb for 1 hour. Polyphenols were then aspirated and 100 μL of fresh DMEM was added back to each well. 24 hours later, 20 μL of the MTS reagent was added to every 100 μL of cells in media. The plates were incubated at 37° C. and 5% CO2 for 4 hours, and then the absorbance was read using a plate reader. […] In this study, cell proliferation was examined under the same conditions as described before. Each experiment was assayed in triplicates, and absorbance of this colorimetric assay was recorded at 490 nm using a 96 well ELISA plate reader.

HSV1 = test: Fluorescence microscopy of GFP-HSV1 lytic cycle in Vero cells; format: cell-based; conditions: for virus replication and formation of virions: virus treated with 100 μM
Protocol: Cells were grown on glass cover slips and allowed to reach confluence. They were then infected with either control HSV or previously treated HSV for 1 hour. Time course studies were performed in which the virus was allowed to adsorb for 1 hour and then aspirated. Cells were washed with PBS and media was added to each well. After a period of 8, 10, and 12 hours, cells were then fixed with a 1:1 acetone and methanol solution and visualized under a Zeiss Axiovision fluorescence microscope using differential interference contrast settings.
HSV1/Vero cells were used as positive controls and Vero cells were used as negative control. 75 μM EGCG ester-HSV1/Vero cells were also monitored and compared to controls. GFP-HSV1, DAPI stained nucleus and lysosome stain were used to identify cytopathic effects on Vero cells. The course study was performed in triplicates.

[4] = for a topical application; cited from earlier work
HSV-1 [5] = conditions: cited from earlier work
HSV-2 = conditions: Vero cells; cited from earlier work
HSV-1 [6] = conditions: antibodies against gB, gD, and a capsid protein; cited from earlier work
HSV1-UL46 = test: GFP expression study using a fluorometer; format: cell-based; conditions: 75 μM, virions treated 3 hours, cells 12 hrs
Protocol: GFP expression was studied in Escherichia coli that contained GFP plasmid, and Escherichia coli without GFP plasmid. The fluorometer used was a Tuner Digital Fluorometer-Model 450. Samples were put into 3 mLs of H2O and serial dilutions were performed from the first 3 mLs of each sample. A standard dilution curve was obtained from the serial dilutions. Next, Vero cells were grown on T-75 flasks and allowed to reach confluence. HSV1 virions were treated for 3 hours with 75 μM of polyphenols prior to cell infection. Cells were then infected with treated and non-treated HSV1-UL46 and allowed to adsorb for 1 hour. Viruses that had not been absorbed were then removed by washing the cells twice with PBS. The cells were then incubated at 37° C. for 12 hrs. Cells were then trypsinized and pelleted. Finally, cells were resuspended with 3 mLs of H2O and analyzed for GFP expression using a fluorometer. 3 ml of water was used as the blank sample. The Gain knob was set to 1000 for higher fluorescence sensitivity.
In this experiment, Vero cells only, HSV1/Vero cells, and 75 μM EGCG-ester-HSV1/Vero cells were used to quantitatively measure GFP expression.

[7] = Stability of the polyphenol (statements, no method); format: physicochemical; conditions: vaginal pH
[8] = 100 μM, Vero cells, replicate counts
[9] = 75 μM, 8 to 12 hours post infection

O=C(O[C@@H]1Cc2c(O)cc(O)cc2O[C@@H]1c1cc(O)c(O)c(O)c1)c1cc(O)c(O)c(O)c1 [EGCG, (−)-epigallocatechin-3-gallate, reference compound]
viral plaques (HSV): no viral plaques were observed | Cells (Vero cells [1]; [8]): 167 and 292 and 347 | Cells dead (Vero cells [1]; [8]): 119 and 134 and 184 | morphological changes (Vero cells [2]; 12.5-100 μM, added when cells were plated, not removed, observed at 48 hrs): no morphological changes | change of cell morphology (Vero cells [2]): do not induce a change cell morphology | maximum nontoxic concentration (Vero cells [2]): 75 µM | effect on the cells (Vero cells [2]): not significantly affected | absorbance at 490 nm, Mean (Vero cells [3]; 12.5 μM): 0.607 | absorbance at 490 nm (single reading) (Vero cells [3]; 12.5 μM): 0.615 and 0.606 and 0.601 | absorbance at 490 nm, Mean (Vero cells [3]; 25 μM): 0.621 | absorbance at 490 nm (single reading) (Vero cells [3]; 25 μM): 0.628 and 0.620 and 0.616 | absorbance at 490 nm, Mean (Vero cells [3]; 50 μM): 0.603 | absorbance at 490 nm (single reading) (Vero cells [3]; 50 μM): 0.632 and 0.587 and 0.589 | absorbance at 490 nm, Mean (Vero cells [3]; 75 μM): 0.647 | absorbance at 490 nm (single reading) (Vero cells [3]; 75 μM): 0.645 and 0.652 | absorbance at 490 nm, Mean (Vero cells [3]; 100 μM): 0.698 | absorbance at 490 nm (single reading) (Vero cells [3]; 100 μM): 0.688 and 0.677 and 0.730 | inhibition of cell proliferation (Vero cells [3]): not inhibiting cell proliferation to a great extent | virus replication and formation of virions (HSV1): not able to replicate and form more virions | stability [4]: highly unstable and oxidizes very quickly | viral production (HSV-1 [5]; Vero cells treated following adsorption and entry of HSV-1): does not inhibit the viral production | inhibition of HSV infection (HSV-1 [5]; Vero cells): successfully inhibited HSV infection in a concentration dependent manner | inhibition of HSV infection (HSV-2): successfully inhibited HSV infection in a concentration dependent manner | drop in immunogold labeling, treated compared to untreated virions (HSV-1 [6]): 30% and 40%

CCCCCCCCCCCCCCCC(=O)Oc1c(O)cc([C@H]2Oc3cc(O)cc(O)c3C[C@H]2OC(=O)c2cc(O)c(O)c(O)c2)cc1O [EGCG-ester]
% of death (Vero cells [1]; 12.5 μM): 10% | Dead cells (Vero cells [1]; 12.5 μM): 2.7E+06 | Live cells (Vero cells [1]; 12.5 μM): 2.56E+07 | % of death (Vero cells [1]; 25 μM): 10% | Dead cells (Vero cells [1]; 25 μM): 2.95E+06 | Live cells (Vero cells [1]; 25 μM): 2.72E+07 | % of death (Vero cells [1]; 50 μM): 10% | Dead cells (Vero cells [1]; 50 μM): 2.90E+06 | Live cells (Vero cells [1]; 50 μM): 2.89E+07 | % of death (Vero cells [1]; 75 μM): 10% | Dead cells (Vero cells [1]; 75 μM): 1.70E+06 | Live cells (Vero cells [1]; 75 μM): 2.71E+07 | maximum nontoxic concentration (Vero cells [1]; Vero cells): 75 µM | percentage of cell death (Vero cells [1]; increasing concentration, compared to control): not changed; also recorded: did not change much | cell morphology (Vero cells [2]; 100 μM, added when cells were plated, not removed, 48 hrs): affected to a certain extent | cell morphology (Vero cells [2]; 12.5-100 μM for 1 hour on cells plated 24 hours, observed 24 hours later): not greatly affected | change of cell morphology (Vero cells [2]): do not induce a change cell morphology | maximum nontoxic concentration (Vero cells [2]): 75 µM | effect on the cells (Vero cells [2]): not significantly affected | absorbance at 490 nm, Mean (Vero cells [3]; 12.5 μM): 0.627 | absorbance at 490 nm (single reading) (Vero cells [3]; 12.5 μM): 0.642 and 0.647 and 0.574 | absorbance at 490 nm, Mean (Vero cells [3]; 25 μM): 0.647 | absorbance at 490 nm (single reading) (Vero cells [3]; 25 μM): 0.668 and 0.651 and 0.621 | absorbance at 490 nm, Mean (Vero cells [3]; 50 μM): 0.676 | absorbance at 490 nm (single reading) (Vero cells [3]; 50 μM): 0.663 and 0.698 and 0.667 | absorbance at 490 nm, Mean (Vero cells [3]; 75 μM): 0.653 | absorbance at 490 nm (single reading) (Vero cells [3]; 75 μM): 0.582 and 0.689 and 0.687 | absorbance at 490 nm, Mean (Vero cells [3]; 100 μM): 0.717 | absorbance at 490 nm (single reading) (Vero cells [3]; 100 μM): 0.691 and 0.741 and 0.719 | inhibition of cell proliferation (Vero cells [3]): not inhibiting cell proliferation to a great extent | inhibition of HSV1 infections (HSV1; [9]): able to inhibit HSV1 infections | visible viral particles in infected cells (HSV1; [9]): almost no virions | GFP expression in green fluorescence images (HSV1; 75 μM, 8 hrs post infection): almost none | virus replication and formation of virions (HSV1): not able to replicate and form more virions | GFP expression (fluorometer) compared to HSV1/Vero cells (HSV1-UL46): much lower | stability [7]: stable at vaginal pH

— patent US9446017B2, “Compositions and methods for treating herpes simplex virus” (Augusta University Research Institute, Inc., priority 2005, dated 2016)
